Test: Degradation study of 2-chloro-6-trichloromethylpyridine/NBPT in DMSO at 50° C. by LC
Type: physicochemical
Method: A degradation study was performed using 2-chloro-6-trichloromethylpyridine/nBPT in DMSO
2-chloro-6-trichloromethylpyridine/NBPT=1/1 (w/w) mixture was dissolved in DMSO. LC's were done to analyze the content decrease along with time. All samples were sealed and protected under N2. All sample were stored 50° C.
C18 column, 255 nm. Retention time: 40 min. temperature: 30° C. 15 μL injection. Peak area percentage were calculated to analyze the concentration.

Row | Compound | content of active, LC peak area percentage (week 1) [peak area percentage] | content of active, LC peak area percentage (week 2) [peak area percentage] | content of active, LC peak area percentage (week 3) [peak area percentage] | content of active, LC peak area percentage (week 4) [peak area percentage] | content of active, LC peak area percentage (week 6) [peak area percentage] | content of active, LC peak area percentage (week 7) [peak area percentage] | content of active, LC peak area percentage (week 8) [peak area percentage] | content of active, LC peak area percentage (week 9) [peak area percentage] | content of active, LC peak area percentage (week 10) [peak area percentage] | content of active, LC peak area percentage (week 11) [peak area percentage] | content of active, LC peak area percentage (week 12) [peak area percentage] | content of active, LC peak area percentage (week 13) [peak area percentage] | content of active, LC peak area percentage (week 14) [peak area percentage] | content of active, LC peak area percentage (week 15) [peak area percentage] | content of active, LC peak area percentage (week 16) [peak area percentage] | content of active, LC peak area percentage (week 17) [peak area percentage] | content of active, LC peak area percentage (week 18) [peak area percentage]
1 | CCCCNP(N)(N)=S [n-butylthiophosphoric triamide] | 100 | 99.6 | 98 | 97.6 | 96.5 | 95.3 | 94.7 | 93 | 92.2 | 92.1 | 91.7 | 91 | 90.88 | 90.01 | 99.55 | 89.06 | 88.6
2 | Clc1cccc(C(Cl)(Cl)Cl)n1 [2-chloro-6-trichloromethylpyridine] | 100 | 99 | 99.4 | 98.3 | 95.3 | 93.2 | 92.3 | 90.8 | 88 | 86.7 | 86.4 | 85 | 84.33 | 83.56 | 81.45 | 81 | 80.09

From patent publication US9637420B2, “Increased longevity of the nitrogen content of soil through improved liquid delivery formulations of urease inhibitors and/or nitrification inhibitors designed for urea and manure based fertilizers” (priority 2013, dated 2017)
